Read-outs that look alike come from different tables or passages of the source.
Tests used:
Type in all cases: cell-based
[1] = system: Lactobacillus plantarum HAC03; test: in vitro Simulated Stomach Duodenum Passage (SSDP) probiotic survivability, lyophilized HAC03; details: for survivability compared with fresh cells, in words / Artificial Bile Juice Survivability (%) / Artificial Bile Juice log CFU/mL / Artificial Gastric Juice Survivability (%) / Artificial Gastric Juice log CFU/mL: Table 3; for Artificial Bile Juice Survivability (%) / Artificial Bile Juice log CFU/mL / Artificial Gastric Juice Survivability (%) / Artificial Gastric Juice log CFU/mL: carbohydrate mixed with HAC03 lyophilizate; for viability at 100000 µM: Lactiplantibacillus plantarum; for intestinal survivability (acid resistance and bile resistance) in words: compared to fresh bacteria / distilled water
Description: The HAC03 strain was mixed with each of the single compositions and 1 mL of distilled water for 1 min. The compositions were formulated to have a final concentration of 0.1 M when dissolved in 1 ml of distilled water. Thereafter, 9 mL of distilled water adjusted to have a pH of 2.5 was added to each mixture. The pH was readjusted back to 2.5 in case of an increased pH due to the nature of some of the single ingredients (in order to not affect the survival of the probiotics). After adjusting the pH to 2.5, the tubes were incubated at 37° C. for 1 hour to apply the low-pH gastric stress condition. […] During the gastrointestinal tract assay, the samples were taken immediately, 1 hour, and […] after the incubation (t=0, 1, and 2). The probiotic survivability of each sample after gastric stress and bile stress was calculated by counting viable colonies.

[2] = system: Lactobacillus plantarum HAC03; test: Zeta potential of lyophilized probiotics mixed with single ingredients (screening); details: 0.1 M ingredient, rehydrated 1 min, pH 2.5
Description: In this experimental example, Lactobacillus plantarum HAC03 (accession number: KCTC13242BP, the Korean Research Institute of Bioscience and Biotechnology) (hereinafter referred to as “HAC03”), which was described in Korean Patent Application No. 10-2017-0051574, was used as a probiotic strain.
Afterwards, 2 mL of pH 2.5 distilled water was added to each sample, the pH was re-adjusted using HCl 0.1 N, and 800 μl of the calibrated sample was loaded in DTS1080 cuvettes. The electrophoretic mobility was measured by the Zetaizer Nano ZEN 3600 (Malvern Panalytica, UK) after 2 minutes of equilibration and the Smoluchowski equation was used to convert the data into zetapotential values.
In this experiment, zeta potentials were measured at a pH of 2.5 in consideration of the highly acidic stomach environment, which is one of the initial hurdles that drastically reduce the survivability of the bacteria.

[3] = system: Lactobacillus casei Lc-11; test: Bacterial adhesion to human enterocyte-like Caco-2/TC-7 cell line, lyophilized Lc-11; details: 0.03 M, compared to the freeze-dried form
Source text: (§1) An examination was made to see whether the effect of reactivating lyophilized probiotics is applicable to various strains in this experimental example. In this regard, lyophilized Bifidobacterium longum Bl-05 (Dupont; hereinafter referred to as “Bl-05”), Lactobacillus plantarum Lp-115 (Dupont; hereinafter referred to as “Lp-115”), Lactobacillus casei Lc-11 (Dupont; hereinafter referred to as “Lc-11”), and 7-strain mixture (400B) (Dupont; hereinafter referred to as “MIX”) were reactivated with L-lysine and then assayed for their ability to adhere to the human enterocyte-like Caco-2/TC-7 cell line.
(§2) Lyophilizates of the three strains and the 7-strain mix were adjusted to 2×10^8 CFU/g and mixed with 0.03 M L-lysine or 0.03 M proline. The pellets were washed three time with 1× PBS and resuspended in 10 ml MEM cell culture media supplemented with 20% FBS, 2 mM glutamine, and 1% non-essential amino acids. A bacterial adhesion assay was performed according to the method of Botes et al. (Arch. Microbiol, 190 (2008), pp. 573-584) with some modifications. […] To quantify the number of bacteria attached to Caco-2/TC-7 cells, the samples were serially diluted, incubated on MRS agar plates for 48 hours (37° C.), and then counted to measure relative adhesion ratio (counts of attached bacteria in test groups to counts of attached bacteria in the control). […]

7-strain mixture (400B) = test: Bacterial adhesion to human enterocyte-like Caco-2/TC-7 cell line, lyophilized 7-strain mixture; details: 0.03 M, compared to the freeze-dried form
Source text: as §1, §2

[4] = system: Bifidobacterium longum Bl-05; test: Bacterial adhesion to human enterocyte-like Caco-2/TC-7 cell line, lyophilized Bl-05; details: 0.03 M, compared to the freeze-dried form
Source text: as §1, §2

[5] = system: Lactobacillus plantarum Lp-115; test: Bacterial adhesion to human enterocyte-like Caco-2/TC-7 cell line, lyophilized Lp-115; details: 0.03 M; L-lysine compared to the freeze-dried form, proline compared to L-lysine-reactivated
Source text: as §1, §2

[6] = HAC03, 1 h, pH 2.5, read-out: Stomach Survivability (%)
[7] = HAC03, 2 h, pH 6, read-out: Duodenum Survivability (%)
[8] = Table 1, 0.1 M ingredient, pH 2.5, 37° C., 1 hour
[9] = Table 1, 0.1 M ingredient, then bile salts (10% ox gall) and pH 6.0 synthetic duodenum juice, 2 hours
[10] = HAC03, Table 1, 0.1 M ingredient, pH 2.5, 37° C., 1 hour, read-out: Stomach Survivability (%)
[11] = HAC03, Table 1, 0.1 M ingredient, then bile salts (10% ox gall) and pH 6.0 synthetic duodenum juice, 2 hours, read-out: Duodenum Survivability (%)

Row | Structure (SMILES) | Artificial Bile Juice Survivability (%) [1] | Artificial Bile Juice log CFU/mL [1] | Artificial Gastric Juice Survivability (%) [1] | Artificial Gastric Juice log CFU/mL [1] | zeta potential of lyophilized HAC03 mixed with the ingredient (sign, FIG. 1) [2] | Stomach log CFU/mL [1, 8] | Duodenum log CFU/mL [1, 9] | intestinal survivability (acid resistance and bile resistance) in words ([1]; Table 1) | further results
1 | OC[C@H]1O[C@H](O[C@H]2[C@H](O)[C@@H](O)C(O)O[C@@H]2CO)[C@H](O)[C@@H](O)[C@@H]1O (mixture of isomers) [Maltose] | 33.79% | 7.61 ± 0.13 log CFU/mL | 85.43% | 8.02 ± 0.05 log CFU/mL | – | – | – | – | survivability compared with fresh cells, in words [1]: survivability similar to or higher than that of fresh cells
2 | O=C[C@@H](O)[C@H](O)[C@H](O)CO [Arabinose] | 9.45% | 7.02 ± 0.35 log CFU/mL | 17.78% | 7.12 ± 0.67 log CFU/mL | – | – | – | – | –
3 | O=C(CO)[C@@H](O)[C@H](O)[C@H](O)CO [Fructose] | 20.73% | 7.27 ± 0.48 log CFU/mL | 46.18% | 7.67 ± 0.37 log CFU/mL | – | – | – | – | survivability compared with fresh cells, in words [1]: survivability similar to or higher than that of fresh cells
4 | N=C(N)NCCC[C@H](N)C(=O)O [L-Arginine, L-arginine] | – | – | – | – | positive zeta potentials | 4.00 ± 0.00 log CFU/mL | 3.73 ± 0.34 log CFU/mL | intestinal survivability far inferior to that of distilled water | viability at 100000 µM [1, 6]: 0.13%; viability at 100000 µM [1, 7]: 0.08%
5 | O=C1O[C@H]([C@@H](O)CO)C(O)=C1O [L-Ascorbic acid, L-ascorbic acid] | – | – | – | – | positive zeta potentials | 4.08 ± 0.15 log CFU/mL | 3.49 ± 0.00 log CFU/mL | intestinal survivability far inferior to that of distilled water | viability at 100000 µM [1, 6]: 0.4%; viability at 100000 µM [1, 7]: 0.1%
6 | N[C@@H](CC(=O)O)C(=O)O [L-Aspartic acid, L-aspartic acid] | – | – | – | – | positive zeta potentials | 7.06 ± 0.56 log CFU/mL | 5.80 ± 0.64 log CFU/mL | intestinal survivability far inferior to that of distilled water | viability at 100000 µM [1, 10]: 29.9%; viability at 100000 µM [1, 11]: 1.86%
7 | N[C@@H](Cc1c[nH]cn1)C(=O)O [L-Histidine, L-histidine] | – | – | – | – | negative zeta potentials | 7.83 ± 0.11 log CFU/mL | 7.52 ± 0.08 log CFU/mL | increased in acid resistance and bile resistance | viability at 100000 µM [1, 10]: 56.6%; viability at 100000 µM [1, 11]: 27.2%
8 | NCCC[C@H](N)C(=O)O [L-Ornithine, L-ornithine] | – | – | – | – | negative zeta potentials | 7.75 ± 0.02 log CFU/mL | 7.57 ± 0.03 log CFU/mL | – | –
9 | N[C@@H](Cc1ccc(O)cc1)C(=O)O [L-Tyrosine, L-tyrosine] | – | – | – | – | negative zeta potentials | 7.98 ± 0.04 log CFU/mL | 7.65 ± 0.01 log CFU/mL | increased in acid resistance and bile resistance | viability at 100000 µM [1, 10]: 73.5%; viability at 100000 µM [1, 11]: 33.9%
10 | O=C(O)CC(O)C(=O)O (stereo not shown) [Malic acid, malic acid] | – | – | – | – | positive zeta potentials | <3.99 ± 0.00 log CFU/mL | <3.49 ± 0.00 log CFU/mL | intestinal survivability far inferior to that of distilled water | viability at 100000 µM [1, 10]: < 0.01%; viability at 100000 µM [1, 11]: < 0.003%
11 | OC[C@@H](O)[C@@H](O)[C@H](O)[C@H](O)CO [Mannitol] | 11.77% | 6.90 ± 0.44 log CFU/mL | 20.04% | 7.18 ± 0.32 log CFU/mL | – | – | – | – | –
12 | C[C@H](O)[C@H](O)[C@@H](O)[C@@H](O)C=O [Rhamnose] | 18.25% | 7.53 ± 0.08 log CFU/mL | 40.75% | 7.87 ± 0.10 log CFU/mL | – | – | – | – | –
13 | OC[C@@H](O)[C@@H](O)[C@H](O)[C@@H](O)CO [Sorbitol] | 40.46% | 7.69 ± 0.09 log CFU/mL | 82.06% | 8.00 ± 0.05 log CFU/mL | – | – | – | – | survivability compared with fresh cells, in words [1]: survivability similar to or higher than that of fresh cells
14 | OC[C@H]1O[C@@](CO)(O[C@H]2O[C@H](CO)[C@@H](O)[C@H](O)[C@H]2O)[C@@H](O)[C@@H]1O [Sucrose] | 42.99% | 7.71 ± 0.13 log CFU/mL | 80.90% | 7.99 ± 0.13 log CFU/mL | – | – | – | – | survivability compared with fresh cells, in words [1]: survivability similar to or higher than that of fresh cells
15 | OC[C@H]1O[C@H](O[C@H]2O[C@H](CO)[C@@H](O)[C@H](O)[C@H]2O)[C@H](O)[C@@H](O)[C@@H]1O [Trehalose] | 28.10% | 7.36 ± 0.03 log CFU/mL | 54.75% | 7.65 ± 0.05 log CFU/mL | – | – | – | – | survivability compared with fresh cells, in words [1]: survivability similar to or higher than that of fresh cells
16 | O=C[C@H](O)[C@@H](O)[C@H](O)CO [Xylose] | 8.47% | 6.97 ± 0.49 log CFU/mL | 27.36% | 7.50 ± 0.25 log CFU/mL | – | – | – | – | –
17 | O=C(O)[C@@H]1CCCN1 [proline, reference compound] | – | – | – | – | positive zeta potentials | – | – | – | bacterial cell adhesion to Caco-2/TC-7 (FIGS. 2A and 2E), in words [3]: remarkably lower in adhesion; bacterial cell adhesion to Caco-2/TC-7 (FIGS. 2D and 2H), in words (7-strain mixture (400B)): remarkably lower in adhesion; bacterial cell adhesion to Caco-2/TC-7 (FIGS. 2B and 2F), in words [4]: remarkably lower in adhesion; bacterial cell adhesion to Caco-2/TC-7 (FIGS. 2C and 2G), in words [5]: remarkably lower in adhesion

Source: patent US20230346853A1, “Probiotic Lyophilizate Reactivation Composition for Improving Intestinal Survivability and Adhesion of Probiotics” (COSMAX NBT, INC., priority 2021, published 2023)
